Assay results: PMC11676196, “Inhibition of TFAM-Mediated Mitophagy by Oroxylin A Restored Sorafenib Sensitivity Under Hypoxia Conditions in HepG2 Cells” (Pharmaceuticals, 2024)

Target: T1, TFAM (mitochondrial transcription factor A) (Homo sapiens, UniProt Q00059)
T1 construct: endogenous protein in intact human HepG2 cells
T1 sequence (Q00059 43-246): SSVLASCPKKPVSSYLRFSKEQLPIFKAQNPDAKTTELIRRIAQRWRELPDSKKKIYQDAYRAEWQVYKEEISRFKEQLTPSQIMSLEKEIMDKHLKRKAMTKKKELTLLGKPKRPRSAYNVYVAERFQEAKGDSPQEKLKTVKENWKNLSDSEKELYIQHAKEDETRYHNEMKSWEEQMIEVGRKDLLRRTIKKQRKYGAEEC
Assay: cellular thermal shift assay (CETSA), Western blot
Format: cell-based
Details: intact cells incubated 2 h with or without OA, heated 3 min at 43 to 70 °C; rightward shift of melting curve

SMILES: COc1c(O)cc2oc(-c3ccccc3)cc(=O)c2c1O [Oroxylin A]
- thermal shift: thermal shift assays showed a significant rightward shift in the thermal melting curve upon OA administration
